Test results: patent US9439918B2 (priority 2008, dated 2016)
Values after ≈ are worked out from the molar mass of the structure shown. Read-outs that look alike come from different tables or passages of the source.

Key:
[1] = system: Salmonella spp. (20); assay: MIC, CLSI broth microdilution; format: cell-based; details: for % by category resistant / % by category susceptible: CLSI 2008 criteria; for MIC 50% / MIC 90% / MIC Range: Salmonella spp.; for MIC50 / MIC90: Salmonella
[2] = system: Shigella spp. (40); assay: MIC, CLSI broth microdilution; format: cell-based; details: for % by category resistant / % by category susceptible: CLSI 2008 criteria
[3] = system: C. jejuni (20); assay: MIC, agar dilution / Etest; details: for MIC50 / MIC90: Campylobacter jejuni; for MIC50: read-out: MIC 50% (Etest); for MIC90: read-out: MIC 90% (Etest)
[4] = system: H. pylori (23); assay: MIC, agar dilution / Etest
[5] = system: intraphagocytic L. monocytogenes EGD; format: cell-based, Listeria monocytogenes; details: for Emax, CFU decrease from original inoculum: 24 h
[6] = system: intraphagocytic L. pneumophila ATCC 33153; format: cell-based, Legionella pneumophila; details: for Emax, CFU decrease from original inoculum: 48 h; for Emax, Δ log10 CFU at 24 h compared to the post-phagocytosis inoculum: L.p., intracellular
[7] = system: staphylococci; assay: MIC50 against Gram-positive cocci; format: cell-based
[8] = system: streptococci; assay: MIC50 against Gram-positive cocci; format: cell-based
[9] = system: L. pneumophila ATCC 33153; format: cell-based, Legionella pneumophila
[10] = Helicobacter pylori, read-out: MIC 50% (Etest)
[11] = C. jejuni, 20 strains, agar dilution

Trimethoprim-sulfamethoxazole [Trim-sulfa]
% by category resistant [1]: 0.0%
% by category susceptible [1]: 100.00%
MIC 50% ([1]; 20 strains): ≦0.25 μg/ml
MIC 90% ([1]; 20 strains): ≦0.25 μg/ml
MIC Range ([1]; 20 strains): ≦0.25 μg/ml
% by category resistant [2]: 62.5%
% by category susceptible [2]: 37.5%
MIC 50% ([2]; Shigella spp., 40 strains): >4 µg/mL
MIC 90% ([2]; Shigella spp., 40 strains): >4 µg/mL

CC[C@H]1OC(=O)[C@H](C)[C@@H](O[C@H]2C[C@@](C)(OC)[C@@H](O)[C@H](C)O2)[C@H](C)[C@@H](O[C@@H]2O[C@H](C)C[C@H](N(C)C)[C@H]2O)[C@](C)(O)C[C@@H](C)C(=O)[C@H](C)[C@@H](O)[C@]1(C)O [Erythromycin]
MIC50 [1]: > 4 µg/mL
MIC90 [1]: > 4 µg/mL
MIC50 ([2]; Shigella spp., 40 strains): > 4 µg/mL
MIC90 ([2]; Shigella spp., 40 strains): > 4 µg/mL
MIC Range (Etest) ([3]; C. jejuni, 20 strains): 0.5 to 4 µg/mL
MIC50 [3]: 2 µg/mL (≈ 2.73 µM)
MIC90 [3]: 4 µg/mL (≈ 5.45 µM)

Cc1ncc([N+](=O)[O-])n1CCO [Metronidazole]
MIC Range (Etest) ([4]; H. pylori, eight strains, Etest): 0.06 to 64 µg/mL
MIC50 [4, 10]: 0.5 µg/mL (≈ 2.92 µM)

C[C@H]1COc2c(N3CCN(C)CC3)c(F)cc3c(=O)c(C(=O)O)cn1c23 [Levofloxacin, levofloxacin]
% by category resistant [1]: 0.0%
% by category susceptible [1]: 95.0%
MIC50 [1]: ≤ 0.12 µg/mL
MIC90 [1]: 1 µg/mL (≈ 2.77 µM)
% by category resistant [2]: 0.0%
% by category susceptible [2]: 100.0%
MIC50 ([2]; Shigella spp., 40 strains): ≤ 0.12 µg/mL
MIC90 ([2]; Shigella spp., 40 strains): ≤ 0.12 µg/mL

CC[C@H]1OC(=O)[C@H](C)[C@@H](O[C@H]2C[C@@](C)(OC)[C@@H](O)[C@H](C)O2)[C@H](C)[C@@H](O[C@@H]2O[C@H](C)C[C@H](N(C)C)[C@H]2O)[C@](C)(O)C[C@@H](C)CN(C)[C@H](C)[C@@H](O)[C@]1(C)O [AZI, azithromycin]
MIC50 [1]: 4 µg/mL (≈ 5.34 µM)
MIC90 [1]: 8 µg/mL (≈ 10.7 µM)
MIC Range ([1]; 20 strains): 2 to 8 µg/mL
MIC Range ([1]; 20 strains, listed as AZ): 2-8 (AZ) μg/ml
MIC50 ([2]; Shigella spp., 40 strains): 4 µg/mL (≈ 5.34 µM)
MIC90 ([2]; Shigella spp., 40 strains): 8 µg/mL (≈ 10.7 µM)
Emax, Δ log10 CFU at 24 h compared to the post-phagocytosis inoculum [5]: −0.81 Δ log10 CFU
Emax, CFU decrease from original inoculum [5]: −0.81 log10 units
Emax, CFU decrease from original inoculum [6]: −0.83 log10 units
Emax, Δ log10 CFU at 24 h compared to the post-phagocytosis inoculum [6]: −0.83 Δ log10 CFU

Quinupristin-dalfopristin
MIC 50% ([1]; 20 strains): >4 µg/mL
MIC 90% ([1]; 20 strains): >4 µg/mL
MIC 50% ([2]; Shigella spp., 40 strains): >4 µg/mL
MIC 90% ([2]; Shigella spp., 40 strains): >4 µg/mL
MIC Range ([2]; Shigella spp., 40 strains): >4 µg/mL

CC[C@H]1OC(=O)[C@H](C)[C@@H](O[C@H]2C[C@@](C)(OC)[C@@H](O)[C@H](C)O2)[C@H](C)[C@@H](O[C@@H]2O[C@H](C)C[C@H](N(C)C)[C@H]2O)[C@](C)(OC)C[C@@H](C)C(=O)[C@H](C)[C@@H](O)[C@]1(C)O [CLR, clarithromycin]
MIC50 [1]: 0.015 µg/mL (≈ 0.0201 µM)
MIC90 [1]: > 16 µg/mL
MIC50 ([2]; Shigella spp., 40 strains): > 16 µg/mL
MIC90 ([2]; Shigella spp., 40 strains): > 16 µg/mL
Emax, Δ log10 CFU at 24 h compared to the post-phagocytosis inoculum [6]: −0.71 Δ log10 CFU
MIC Range (Etest) ([3]; C. jejuni, 20 strains): 1 to 8 µg/mL
MIC Range (Etest) ([3]; C. jejuni, 20 strains, listed as CLA): 1-8 (CLA) μg/ml
MIC50 [3]: 2 µg/mL (≈ 2.67 µM)
MIC90 [3]: 4 µg/mL (≈ 5.35 µM)
% by category resistant ([4]; CLSI 2008 criteria): 8.7%
% by category susceptible ([4]; CLSI 2008 criteria): 91.3%
MIC50 ([4]; Helicobacter pylori): 0.03 µg/mL (≈ 0.0401 µM)
MIC90 ([4]; Helicobacter pylori): 0.12 µg/mL (≈ 0.16 µM)
MIC50 [4, 10]: ≤ 0.015 µg/mL

CC[C@H]1OC(=O)[C@@](C)(F)C(=O)[C@H](C)[C@@H](OC2OC(C)CC(N(C)C)C2O)[C@@](C)(OC)C[C@@H](C)C(=O)[C@H](C)[C@H]2N(CCCCn3cc(-c4cccc(N)c4)nn3)C(=O)O[C@]12C (some centres unmarked) [CEM-101, 11-N-4-(3-aminophenyl)-[1,2,3]triazol-1-yl]-butyl-5-desosaminyl-3-oxo-2-fluoro-erythronolide A,-11,12-cyclic carbamate]
No. of strains at MIC 0.06 ([1]; MIC distribution, 20 strains): 0
No. of strains at MIC 0.12 ([1]; MIC distribution, 20 strains): 0
No. of strains at MIC 0.25 ([1]; MIC distribution, 20 strains): 0
No. of strains at MIC 0.5 ([1]; MIC distribution, 20 strains): 0
No. of strains at MIC 1 ([1]; MIC distribution, 20 strains): 3
No. of strains at MIC 2 ([1]; MIC distribution, 20 strains): 4
No. of strains at MIC 4 ([1]; MIC distribution, 20 strains): 4
No. of strains at MIC 8 ([1]; MIC distribution, 20 strains): 4
No. of strains at MIC ≦0.03 ([1]; MIC distribution, 20 strains): 0
No. of strains at MIC ≧16 ([1]; MIC distribution, 20 strains): 5
MIC 50% ([1]; 20 strains): 4 µg/mL (≈ 4.73 µM)
MIC 90% ([1]; 20 strains): >16 µg/mL
No. of strains at MIC 0.06 ([2]; MIC distribution, 40 strains): 0
No. of strains at MIC 0.12 ([2]; MIC distribution, 40 strains): 0
No. of strains at MIC 0.25 ([2]; MIC distribution, 40 strains): 0
No. of strains at MIC 0.5 ([2]; MIC distribution, 40 strains): 0
No. of strains at MIC 1 ([2]; MIC distribution, 40 strains): 2
No. of strains at MIC 2 ([2]; MIC distribution, 40 strains): 0
No. of strains at MIC 4 ([2]; MIC distribution, 40 strains): 14
No. of strains at MIC 8 ([2]; MIC distribution, 40 strains): 18
No. of strains at MIC ≦0.03 ([2]; MIC distribution, 40 strains): 0
No. of strains at MIC ≧16 ([2]; MIC distribution, 40 strains): 6
MIC 50% ([2]; Shigella spp., 40 strains): 8 µg/mL (≈ 9.47 µM)
MIC 90% ([2]; Shigella spp., 40 strains): 16 µg/mL (≈ 18.9 µM)
MIC50 [7]: 0.06 µg/mL (≈ 0.071 µM)
MIC50 [8]: 0.015 µg/mL (≈ 0.0178 µM)
MIC ([9]; conventional susceptibility testing): 0.004 µg/mL (≈ 0.00473 µM)
MIC ([9]; pH-adjusted broth, pH 6.5): 0.01 µg/mL (≈ 0.0118 µM)
MIC ([9]; pH-adjusted broth, pH 7.4): 0.005 µg/mL (≈ 0.00592 µM)
Emax, Δ log10 CFU at 24 h compared to the post-phagocytosis inoculum [5]: −0.66 Δ log10 CFU
Emax, CFU decrease from original inoculum [5]: −0.66 log10 units
Emax, CFU decrease from original inoculum [6]: −1.03 log10 units
Emax, Δ log10 CFU at 24 h compared to the post-phagocytosis inoculum [6]: −1.03 Δ log10 CFU
MIC 50% [3, 11]: 1 µg/mL (≈ 1.18 µM)
MIC 90% [3, 11]: 4 µg/mL (≈ 4.73 µM)
No. of strains at MIC 0.06 ([3]; MIC distribution, 20 strains): 0
No. of strains at MIC 0.12 ([3]; MIC distribution, 20 strains): 0
No. of strains at MIC 0.25 ([3]; MIC distribution, 20 strains): 0
No. of strains at MIC 0.5 ([3]; MIC distribution, 20 strains): 0
No. of strains at MIC 1 ([3]; MIC distribution, 20 strains): 10
No. of strains at MIC 2 ([3]; MIC distribution, 20 strains): 0
No. of strains at MIC 4 ([3]; MIC distribution, 20 strains): 8
No. of strains at MIC 8 ([3]; MIC distribution, 20 strains): 2
No. of strains at MIC ≦0.03 ([3]; MIC distribution, 20 strains): 0
No. of strains at MIC ≧16 ([3]; MIC distribution, 20 strains): 0

Amoxicillin-clavulanate
% by category resistant [1]: 0.0%
% by category susceptible [1]: 95.0%
MIC 50% ([1]; 20 strains): 2 µg/mL
MIC 90% ([1]; 20 strains): 8 µg/mL
% by category resistant [2]: 0.0%
% by category susceptible [2]: 72.5%
MIC 50% ([2]; Shigella spp., 40 strains): 8 µg/mL
MIC 90% ([2]; Shigella spp., 40 strains): >8 µg/mL

CC[C@H]1OC(=O)[C@H](C)C(=O)[C@H](C)[C@@H](O[C@@H]2O[C@H](C)C[C@H](N(C)C)[C@H]2O)[C@](C)(OC)C[C@@H](C)C(=O)[C@H](C)[C@H]2N(CCCCn3cnc(-c4cccnc4)c3)C(=O)O[C@]12C [TEL, telithromycin]
MIC50 [1]: 8 µg/mL (≈ 9.85 µM)
MIC90 [1]: > 16 µg/mL
MIC50 ([2]; Shigella spp., 40 strains): 16 µg/mL (≈ 19.7 µM)
MIC90 ([2]; Shigella spp., 40 strains): 16 µg/mL (≈ 19.7 µM)
Emax, Δ log10 CFU at 24 h compared to the post-phagocytosis inoculum [6]: −0.63 Δ log10 CFU

C=CC1=C(C(=O)O)N2C(=O)[C@@H](NC(=O)/C(=N\O)c3csc(N)n3)[C@H]2SC1 [Cefdinir]
% by category resistant [1]: 0.0%
% by category susceptible [1]: 100.00%
MIC50 [1]: 0.25 µg/mL (≈ 0.632 µM)
MIC90 [1]: 0.5 µg/mL (≈ 1.26 µM)
% by category resistant [2]: 0.0%
% by category susceptible [2]: 100.0%
MIC50 ([2]; Shigella spp., 40 strains): 0.25 µg/mL (≈ 0.632 µM)
MIC90 ([2]; Shigella spp., 40 strains): 0.25 µg/mL (≈ 0.632 µM)

CN(C)[C@@H]1C(O)=C(C(N)=O)C(=O)[C@@]2(O)C(O)=C3C(=O)c4c(O)cccc4[C@@](C)(O)[C@H]3C[C@@H]12 [Tetracycline]
MIC Range (Etest) ([3]; C. jejuni, 20 strains): 0.06 to 256 µg/mL
MIC50 [3]: 64 µg/mL (≈ 144 µM)
MIC90 [3]: > 256 µg/mL
MIC50 [4, 10]: 0.06 µg/mL (≈ 0.135 µM)

CCC[C@@H]1C[C@@H](C(=O)N[C@@H]([C@H]2O[C@H](SC)[C@H](O)[C@@H](O)[C@H]2O)[C@H](C)Cl)N(C)C1 [Clindamycin]
MIC50 ([2]; Shigella spp., 40 strains): > 4 µg/mL
MIC90 ([2]; Shigella spp., 40 strains): > 4 µg/mL

CC1(C)S[C@@H]2[C@H](NC(=O)[C@H](N)c3ccccc3)C(=O)N2[C@H]1C(=O)O [Ampicillin]
MIC50 [4, 10]: ≤ 0.015 µg/mL
